Data reported in ChEMBL document CHEMBL5104124, “Recent advances on synthesis and biological activities of C-17 aza-heterocycle derived steroids” (Bioorg Med Chem, 2022).
One block for each compound: values may come before it.

Legend:
[1] = biological target: 3-oxo-5-alpha-steroid 4-dehydrogenase 2 (Rattus norvegicus, UniProt P31214); experiment: Inhibition of rat liver microsomal SRD5A2 incubated for 60 mins by thin layer chromatography; assay type: microsomes, Microsome
HepG2 [2] = experiment: Antiproliferative activity against human HepG2 cells assessed as cell growth inhibition measured after 24 hrs by MTT assay; assay type: functional, cell-based; details: HepG2, 24 h
LNCaP = experiment: Antiproliferative activity against human LNCaP cells assessed as cell growth inhibition measured after 96 hrs by MTT assay; assay type: functional, cell-based
PC-3 = experiment: Antiproliferative activity against human PC-3 cells assessed as cell growth inhibition measured after 96 hrs by MTT assay; assay type: functional, cell-based; details: PC-3, 96 h
[3] = biological target: 3-oxo-5-alpha-steroid 4-dehydrogenase 2 (Homo sapiens, UniProt P31213); experiment: Inhibition of SRD5A2 in HEK293 incubated for 60 mins by thin layer chromatography; assay type: cell-based
3-oxo-5-alpha-steroid 4-dehydrogenase 2 (Homo sapiens, UniProt P31213), sequence (P31213 whole entry): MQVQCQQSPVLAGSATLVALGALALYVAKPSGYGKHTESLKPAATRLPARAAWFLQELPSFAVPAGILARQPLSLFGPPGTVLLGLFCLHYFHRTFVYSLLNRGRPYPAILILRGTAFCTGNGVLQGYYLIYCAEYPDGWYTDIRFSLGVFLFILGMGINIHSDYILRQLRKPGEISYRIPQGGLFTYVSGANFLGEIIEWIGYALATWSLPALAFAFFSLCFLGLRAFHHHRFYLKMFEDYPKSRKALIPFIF

[4] = biological target: 3-oxo-5-alpha-steroid 4-dehydrogenase 1 (Homo sapiens, UniProt P18405); experiment: Inhibition of human prostate SRD5A1 incubated for 60 mins by scintillation counter; assay type: tissue-based, Prostate gland
3-oxo-5-alpha-steroid 4-dehydrogenase 1 (Homo sapiens, UniProt P18405), sequence (P18405 whole entry): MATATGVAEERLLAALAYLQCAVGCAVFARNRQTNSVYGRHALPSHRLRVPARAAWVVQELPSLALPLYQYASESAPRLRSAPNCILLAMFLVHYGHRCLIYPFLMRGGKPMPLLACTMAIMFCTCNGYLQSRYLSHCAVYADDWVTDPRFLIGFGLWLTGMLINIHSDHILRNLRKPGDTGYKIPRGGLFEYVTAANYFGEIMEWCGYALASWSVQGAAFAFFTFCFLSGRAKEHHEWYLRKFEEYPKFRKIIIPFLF

[5] = Inhibition of Wistar rat testicular 3beta-HSD incubated for 20 mins by liquid scintillation counting analysis; assay type: tissue-based, Testis
Enterococcus faecalis = experiment: Antibacterial activity against Enterococcus faecalis ATCC 19433 assessed as inhibition of bacterial growth measured after 24 hrs by CLSI protocol based microdilution assay; assay type: functional
Brevibacterium = experiment: Antibacterial activity against Brevibacterium assessed as inhibition of bacterial growth measured after 24 hrs by CLSI protocol based microdilution assay; assay type: functional
Staphylococcus aureus [6] = experiment: Antibacterial activity against methicillin resistant Staphylococcus aureus ATCC 43300 assessed as inhibition of bacterial growth measured after 24 hrs by CLSI protocol based microdilution assay; assay type: functional
Candida albicans = experiment: Antifungal activity against Candida albicans ATCC 10231 assessed as fungal growth inhibition measured after 24 hrs by CLSI protocol based microdilution assay; assay type: functional
Staphylococcus aureus [7] = experiment: Antibacterial activity against Staphylococcus aureus ATCC 25923 assessed as inhibition of bacterial growth measured after 24 hrs by CLSI protocol based microdilution assay; assay type: functional
Staphylococcus aureus [8] = experiment: Antibacterial activity against methicillin resistant Staphylococcus aureus ATCC 25923 assessed as inhibition of bacterial growth measured after 24 hrs by CLSI protocol based microdilution assay; assay type: functional
Staphylococcus aureus [9] = experiment: Antibacterial activity against methicillin resistant Staphylococcus aureus chicken isolate assessed as inhibition of bacterial growth measured after 24 hrs by CLSI protocol based microdilution assay; assay type: functional
Staphylococcus aureus [10] = experiment: Antibacterial activity against methicillin resistant Staphylococcus aureus human isolate assessed as inhibition of bacterial growth measured after 24 hrs by CLSI protocol based microdilution assay; assay type: functional
Bacillus cereus = experiment: Antibacterial activity against Bacillus cereus ATCC 11778 assessed as inhibition of bacterial growth measured after 24 hrs by CLSI protocol based microdilution assay; assay type: functional
Escherichia coli = experiment: Antibacterial activity against Escherichia coli DSM 10233 assessed as inhibition of bacterial growth measured after 24 hrs by CLSI protocol based microdilution assay; assay type: functional
Corynebacterium sp. = experiment: Antibacterial activity against Corynebacterium assessed as inhibition of bacterial growth measured after 24 hrs by CLSI protocol based microdilution assay; assay type: functional
MCF7 [11] = experiment: Antiproliferative activity against human MCF7 cells assessed as cell growth inhibition measured after 72 hrs by MTT assay; assay type: functional, cell-based; details: MCF7, 72 h
MDA-MB-361 = experiment: Antiproliferative activity against human MDA-MB-361 cells assessed as cell growth inhibition measured after 72 hrs by MTT assay; assay type: functional, cell-based; details: MDA-MB-361, 72 h
T47D = experiment: Antiproliferative activity against human T47D cells assessed as cell growth inhibition measured after 72 hrs by MTT assay; assay type: functional, cell-based
OVCAR-3 = experiment: Antiproliferative activity against human OVCAR-3 cells assessed as cell growth inhibition measured after 5 days by MTT assay; assay type: functional, cell-based; details: OVCAR-3, 120 h
Tubulin = Tubulin (Sus scrofa, UniProt P02554+P02550); experiment: Inhibition of porcine brain tubulin polymerization preincubated for 30 mins followed by GTP addition by absorbance based analysis; assay type: tissue-based
[12] = Antiproliferative activity against human WM35 cells assessed as cell growth inhibition measured after 5 days by MTT assay; assay type: functional, cell-based; details: WM35, 120 h
K562 = experiment: Antiproliferative activity against human K562 cells assessed as cell growth inhibition measured after 5 days by MTT assay; assay type: functional, cell-based; details: K562, 120 h
[13] = biological target: 3-oxo-5-alpha-steroid 4-dehydrogenase 1 (Rattus norvegicus, UniProt P24008); experiment: Inhibition of rat liver microsomal SRD5A1 incubated for 60 mins by thin layer chromatography; assay type: microsomes, Microsome
3-oxo-5-alpha-steroid 4-dehydrogenase 1 (Rattus norvegicus, UniProt P24008), sequence (P24008 whole entry): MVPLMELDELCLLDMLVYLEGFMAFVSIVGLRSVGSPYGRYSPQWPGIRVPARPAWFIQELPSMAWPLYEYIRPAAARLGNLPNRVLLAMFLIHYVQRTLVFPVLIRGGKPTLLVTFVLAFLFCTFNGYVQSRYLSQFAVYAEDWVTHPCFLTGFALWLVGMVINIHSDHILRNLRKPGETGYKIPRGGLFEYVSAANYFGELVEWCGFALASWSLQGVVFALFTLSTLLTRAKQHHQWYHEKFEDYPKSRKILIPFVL

Huh-7 = experiment: Antiproliferative activity against human Huh-7 cells assessed as cell growth inhibition by MTT assay; assay type: functional, cell-based
SGC-7901 = experiment: Antiproliferative activity against human SGC-7901 cells assessed as cell growth inhibition by MTT assay; assay type: functional, cell-based
HepG2 [14] = experiment: Antiproliferative activity against human HepG2 cells assessed as cell growth inhibition by MTT assay; assay type: functional, cell-based
MGC-803 = experiment: Antiproliferative activity against human MGC-803 cells assessed as cell growth inhibition measured after 72 hrs by MTT assay; assay type: functional, cell-based; details: MGC-803, 72 h
EC9706 = experiment: Antiproliferative activity against human EC9706 cells assessed as cell growth inhibition measured after 72 hrs by MTT assay; assay type: functional, cell-based; details: EC9706, 72 h
ECa-109 cell line = experiment: Antiproliferative activity against human EC109 cells assessed as cell growth inhibition measured after 72 hrs by MTT assay; assay type: functional, cell-based; details: ECa-109, 72 h
[15] = Antiangiogenesis activity in Bovine BAEC cells assessed as increase in tube formation incubated for 18 hrs by microscopic analysis; assay type: functional, cell-based; details: Bos taurus
CCRF-CEM [16] = experiment: Antiproliferative activity against human CEM cells assessed as cell growth inhibition; assay type: functional, cell-based
[17] = Antiproliferative activity against African green monkey Vero cells assessed as cell growth inhibition; assay type: toxicity, cell-based; details: African green monkey (Chlorocebus sabaeus)
HeLa [18] = experiment: Antiproliferative activity against human HeLa cells assessed as cell growth inhibition; assay type: functional, cell-based
HT-29 = experiment: Antiproliferative activity against human HT-29 cells assessed as cell growth inhibition; assay type: functional, cell-based
[19] = Antiproliferative activity against human HMEC-1 cells assessed as cell growth inhibition; assay type: toxicity, cell-based
MDA-MB-231 = experiment: Antiproliferative activity against human MDA-MB-231 cells assessed as cell growth inhibition; assay type: functional, cell-based
HepG2 [20] = experiment: Antiproliferative activity against human HepG2 cells assessed as cell growth inhibition; assay type: functional, cell-based
MCF7 [21] = experiment: Antiproliferative activity against human MCF7 cells assessed as cell growth inhibition; assay type: functional, cell-based
SK-OV-3 = experiment: Antiproliferative activity against human SK-OV-3 cells assessed as cell growth inhibition; assay type: functional, cell-based
[22] = Antiproliferative activity against human HMEC-1 cells assessed as cell growth inhibition measured after 4 days by coulter counter assay; assay type: toxicity, cell-based
CCRF-CEM [23] = experiment: Antiproliferative activity against human CEM cells assessed as cell growth inhibition measured after 4 days by coulter counter assay; assay type: functional, cell-based; details: 96 h
HeLa [24] = experiment: Antiproliferative activity against human HeLa cells assessed as cell growth inhibition measured after 4 days by coulter counter assay; assay type: functional, cell-based; details: 96 h

3-oxo-5-alpha-steroid 4-dehydrogenase 2 (Rattus norvegicus, UniProt P31214), sequence (P31214 whole entry): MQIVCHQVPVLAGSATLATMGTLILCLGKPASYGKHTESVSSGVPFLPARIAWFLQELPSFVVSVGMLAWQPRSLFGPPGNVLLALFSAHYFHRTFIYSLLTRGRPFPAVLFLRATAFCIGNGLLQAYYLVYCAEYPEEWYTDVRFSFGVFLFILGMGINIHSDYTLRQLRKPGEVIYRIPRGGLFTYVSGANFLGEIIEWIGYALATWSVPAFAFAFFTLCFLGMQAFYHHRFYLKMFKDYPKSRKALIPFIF

Structure (SMILES): COc1ccncc1C1=CC[C@H]2[C@@H]3CC=C4C[C@@H](OC(=O)[C@H](O)[C@@H](NC(=O)c5ccccc5)c5ccccc5)CC[C@]4(C)[C@H]3CC[C@]12C
IC50 (HepG2 [2]): 67700 nM

Structure (SMILES): CC(=O)N1N=C(C2=CC[C@H]3[C@@H]4CC=C5C[C@@H](O)CC[C@]5(C)[C@H]4CC[C@]23C)C[C@H]1c1ccc(F)cc1
IC50 [3]: 27.3 nM
IC50 [4]: 13.9 nM

Structure (SMILES): COC(=O)c1cc([C@H]2CC[C@H]3[C@@H]4CCC5=CC(=O)CC[C@]5(C)[C@H]4CC[C@]23C)n(-c2ccc(OC)cc2)n1
IC50 [5]: 420 nM

Structure (SMILES): CCCCCCn1c[n+](CCCCCC)c2c1[C@@]1(C)CC[C@H]3[C@@H](CC=C4C[C@@H](O)CC[C@@]43C)[C@@H]1C2.[I-]
MIC (Enterococcus faecalis): 4 µg/mL
MIC (Brevibacterium): 0.5 µg/mL
MIC (Staphylococcus aureus [6]): 1 µg/mL
MIC (Candida albicans): 1 µg/mL
MIC (Staphylococcus aureus [7]): 0.5 µg/mL
MIC (Staphylococcus aureus [8]): 0.5 µg/mL
MIC (Staphylococcus aureus [9]): 1 µg/mL
MIC (Staphylococcus aureus [10]): 1 µg/mL
MIC (Bacillus cereus): 1 µg/mL
MIC (Escherichia coli): 4 µg/mL
MIC (Corynebacterium sp.): 8 µg/mL

Structure (SMILES): CCCCCCCn1c[n+](CCCCCCC)c2c1[C@@]1(C)CC[C@H]3[C@@H](CC=C4C[C@@H](O)CC[C@@]43C)[C@@H]1C2.[I-]
MIC (Enterococcus faecalis): 1 µg/mL
MIC (Brevibacterium): 0.25 µg/mL
MIC (Staphylococcus aureus [6]): 1 µg/mL
MIC (Candida albicans): 1 µg/mL
MIC (Staphylococcus aureus [7]): 0.25 µg/mL
MIC (Staphylococcus aureus [8]): 1 µg/mL
MIC (Staphylococcus aureus [9]): 0.5 µg/mL
MIC (Staphylococcus aureus [10]): 1 µg/mL
MIC (Bacillus cereus): 0.5 µg/mL
MIC (Escherichia coli): 4 µg/mL
MIC (Corynebacterium sp.): 1 µg/mL

Structure (SMILES): C[C@]12CC[C@H](O)CC1=CC[C@@H]1[C@@H]2CC[C@]2(C)C(c3ccn(-c4ccc(Cl)cc4)n3)=CC[C@@H]12
IC50 [3]: 35.3 nM
IC50 [4]: 14.2 nM

Structure (SMILES): COc1cc2c(cc1O)CC[C@@H]1[C@@H]2CC[C@]2(C)[C@@H](c3cn(-c4ccc(C(F)(F)F)cc4)nn3)CC[C@@H]12
IC50 (OVCAR-3): 1400 nM
IC50 (Tubulin): 8100 nM
IC50 [12]: 1900 nM
IC50 (K562): 1000 nM

Structure (SMILES): C[C@]12CC[C@H](OC(=O)C3CC3)CC1=CC[C@@H]1[C@@H]2CC[C@]2(C)C(n3cnc4ccccc43)=C(C=O)C[C@@H]12
IC50 [13]: 320 nM
IC50 [1]: 4 nM

Structure (SMILES): COc1cc2c(cc1OS(N)(=O)=O)CC[C@@H]1[C@@H]2CC[C@]2(C)C(c3ccnc(Cl)c3)=CC[C@@H]12
IC50 [15]: 100 nM
IC50 (CCRF-CEM [16]): 260 nM
IC50 (Tubulin): 2300 nM
IC50 [17]: 1300 nM
IC50 (HeLa [18]): 1600 nM
IC50 (HT-29): 430 nM
IC50 [19]: 2300 nM

Structure (SMILES): COc1cc2c(cc1O)CC[C@@H]1[C@@H]2CC[C@]2(C)[C@@H](c3cn(-c4ccc(OC(F)(F)F)cc4)nn3)CC[C@@H]12
IC50 (OVCAR-3): 900 nM
IC50 (Tubulin): 5900 nM
IC50 [12]: 2900 nM
IC50 (K562): 700 nM

Structure (SMILES): COc1cc2c(cc1OS(N)(=O)=O)CC[C@@H]1[C@@H]2CC[C@]2(C)C(c3cncc(Cl)c3)=CC[C@@H]12
IC50 [15]: 200 nM
IC50 (CCRF-CEM [16]): 39 nM
IC50 (Tubulin): 2100 nM
IC50 [17]: 30 nM
IC50 (MDA-MB-231): 110 nM
IC50 (HeLa [18]): 370 nM
IC50 (HT-29): 110 nM
IC50 [19]: 400 nM

Structure (SMILES): C[C@]12CC[C@H](O)CC1=CC[C@@H]1[C@@H]2CC[C@]2(C)C(c3ccc4[nH]ccc4c3)=CC[C@@H]12
IC50 at 4 days [22]: 590 nM
IC50 (CCRF-CEM [23]): 1500 nM
IC50 (HeLa [24]): 2900 nM

Continued, in another order:

IC50 [1]: 127 nM
Structure (SMILES): C[C@]12CC[C@H](O)CC1=CC[C@@H]1[C@@H]2CC[C@]2(C)C(n3cnc4ccccc43)=C(C=O)C[C@@H]12

IC50 (LNCaP): 3800 nM
IC50 (PC-3): 6900 nM
Structure (SMILES): C[C@]12CC[C@H](O)CC1=CC[C@@H]1[C@@H]2CC[C@]2(C)C(c3nc4ccccc4[nH]3)=CC[C@@H]12

IC50 (MCF7 [11]): 1100 nM
IC50 (MDA-MB-361): 940 nM
IC50 (T47D): 1450 nM
Structure (SMILES): C[C@]12CC[C@H](O)CC1=CC[C@@H]1[C@@H]2CC[C@]2(C)C3=NN(c4ccc(C#N)cc4)C[C@@H]3C[C@@H]12

IC50 (Huh-7): 5650 nM
IC50 (SGC-7901): 10600 nM
IC50 (HepG2 [14]): 5410 nM
Structure (SMILES): C[C@]12CC[C@H](O)CC1=CC[C@@H]1[C@@H]2CC[C@]2(C)c3nc(N)nc(-c4ccccc4Cl)c3C[C@@H]12

IC50 (MGC-803): 10300 nM
Structure (SMILES): C[C@]12CC[C@H](O)CC1=CC[C@@H]1[C@@H]2CC[C@]2(C)c3nc(NCc4ccc(Cl)cc4)sc3C[C@@H]12
IC50 (EC9706): 39300 nM
IC50 (ECa-109 cell line): 196 nM

IC50 (HepG2 [20]): 12400 nM
IC50 (MCF7 [21]): 8810 nM
IC50 (HeLa [18]): 8140 nM
IC50 (SK-OV-3): 5080 nM
Structure (SMILES): C[C@]12CC[C@H]3[C@@H](CC=C4C[C@@H](O)CC[C@@]43C)[C@@H]1CC[C@@H]2c1cc(-c2ccc(O)cc2)c(C#N)c(N)n1
